Laboratory results published in PMC6099356 (The New Phytologist, 2018).

The molecules below were run on HA‐SlCaM3/4/5.
Format: binding, tomato (Solanum lycopersicum)

Molecule	effect on GFP-SFI5/HA-SlCaM3/4/5 association
EDTA	significantly inhibited by the presence of CaM antagonist and Ca^2+ channel blockers
LaCl3	significantly inhibited by the presence of CaM antagonist and Ca^2+ channel blockers
NCCCCCCNS(=O)(=O)c1cccc2c(Cl)cccc12 [Peptide W7, N‐(6‐aminohexyl)‐5‐chloro‐1‐naphthalene‐sulphonamide]	significantly inhibited by the presence of CaM antagonist and Ca^2+ channel blockers
